The text below walks through data of US8470889B2 (TRT Pharma Inc., priority 2008, dated 2013).

The target in one assay is T1, wild-type human AR (Homo sapiens, UniProt P10275).
T1 construct: utilizing plasmid expressing a full length of AR; expressed in transfected cells; host or cells: PC-3 cells, plasmid pCMV-AR-wt
T1 sequence (P10275 1-920): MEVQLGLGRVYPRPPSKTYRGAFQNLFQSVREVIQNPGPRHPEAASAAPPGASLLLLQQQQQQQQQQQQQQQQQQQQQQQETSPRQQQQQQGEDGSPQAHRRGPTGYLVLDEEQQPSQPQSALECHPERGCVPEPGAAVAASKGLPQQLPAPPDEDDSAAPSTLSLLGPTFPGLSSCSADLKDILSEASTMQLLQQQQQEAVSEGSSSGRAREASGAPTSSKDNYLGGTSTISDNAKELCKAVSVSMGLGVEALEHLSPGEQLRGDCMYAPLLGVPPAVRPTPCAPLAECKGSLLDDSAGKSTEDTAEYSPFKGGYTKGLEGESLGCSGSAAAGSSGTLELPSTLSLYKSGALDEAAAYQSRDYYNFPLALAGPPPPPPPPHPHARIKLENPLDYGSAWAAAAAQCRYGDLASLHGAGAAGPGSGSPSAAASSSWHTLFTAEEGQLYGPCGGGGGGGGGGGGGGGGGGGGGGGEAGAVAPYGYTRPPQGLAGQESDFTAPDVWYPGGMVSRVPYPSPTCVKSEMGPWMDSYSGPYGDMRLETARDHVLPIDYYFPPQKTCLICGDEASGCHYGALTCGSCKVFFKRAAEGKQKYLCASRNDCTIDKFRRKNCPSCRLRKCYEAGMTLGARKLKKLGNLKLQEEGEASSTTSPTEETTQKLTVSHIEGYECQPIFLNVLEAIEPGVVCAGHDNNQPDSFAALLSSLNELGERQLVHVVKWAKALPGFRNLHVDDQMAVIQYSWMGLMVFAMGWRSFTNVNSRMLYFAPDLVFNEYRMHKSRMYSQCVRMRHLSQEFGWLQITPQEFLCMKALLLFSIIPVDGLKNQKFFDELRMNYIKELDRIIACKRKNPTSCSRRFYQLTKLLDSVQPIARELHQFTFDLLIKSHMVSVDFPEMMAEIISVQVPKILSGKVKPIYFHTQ
Briefly: Luciferase assay for AR transactivation, wild-type AR, PC-3 cells. The conditions noted are these: 0.1 nM DHT; for Antiandrogenic activity evaluated by luciferase assay in PC-3 cells WT: test compound 1 μM; for suppression of DHT-induced transactivation of wild-type AR: test compound 0.1-1 μM, PC-3 cells. The arrangement: Antiandrogenic activity evaluated by luciferase assay in PC-3 cells WT: key to the marks not given beside the values. It is filed as cell-based. As to the method:
(§1) PC-3 cells were transiently transfected with pCMV-MMTV-Luc, Renilla null luciferase and AR expressing plasmids. The cells were treated with 0.1 nM DHT with and without test compound for 24 hr. Relative luciferase activity was determined by dual luciferase assay kit (Promega), standardized to Renilla luciferase control and normalized to 0.1 nM DHT without test compound (100%).
(§2) After 16 h, the cells were treated with 0.1 nM of DHT and test compounds at the designated concentration. After further 24 h, the cells were lysed in 100 μL/well passive lysis buffer, and 20 μL of the cell lysates was used for detection of the luciferase activity using Dual Luciferase Assay System (Promega). All experiments were run in triplicate. Relative luciferase activity is determined as the ratio of inducible firefly luciferase luminescence divided by the luminescence of the renilla luciferase control normalized to 0.1 nM DHT without test compounds.
(§3) The potency of antagonistic activity: ++>+.
PC-3 cells were transiently transfected with plasmid expressing wild type human AR and MMTV-Luc. […] RLU, relative luciferase units, were normalized to that of 0.1 nM DHT alone.

The next assay concerns the target T2, H874Y mutated AR (Homo sapiens, UniProt P10275, H875Y).
T2 sequence (P10275 1-920 H875Y): T1 sequence (P10275 1-920) with H875Y
Briefly: Luciferase assay for AR transactivation, H874Y AR, PC-3 cells. It is filed as cell-based. Particulars: 0.1 nM DHT; for suppression of DHT-induced transactivation of H874Y AR: test compound 0.1-1 μM, PC-3 cells; for Antiandrogenic activity evaluated by luciferase assay in PC-3 cells H874Y: test compound 1 μM. As to the method: as §1, §2, §3

Positions count from the first letter of the chain named.

Turning to `CC1(C)CCC(O)C=C1/C=C/C(=O)/C=C/c1csc2ccccc12` (stereo not drawn) [Compound B92], the “Antiandrogenic activity evaluated by luciferase assay in PC-3 cells WT” value at wild-type human AR was “++”. At H874Y mutated AR, the “suppression of DHT-induced transactivation of H874Y AR” value (from here on “suppression … of H874Y AR”) was “pure antagonists” and the “Antiandrogenic activity evaluated by luciferase assay in PC-3 cells H874Y” value is “+”.

Consider `CC1=C(/C=C/C(=O)/C=C/c2cccc(C(F)(F)F)c2)C(C)(C)CCC1O` (racemic) [Compound B25], for which the “suppression of DHT-induced transactivation of wild-type AR” value on wild-type human AR was “modest antiandrogenic activity”. In addition, the “suppression … of H874Y AR” value on H874Y mutated AR is “dose-dependent activity”.

Turning to `CC1(C)CCC(O)C=C1/C=C/C(=O)/C=C/c1cnc2ccccc2c1` (stereo not drawn) [Compound B95], at wild-type human AR, the “suppression of DHT-induced transactivation of wild-type AR” value was “effective” and the “Antiandrogenic activity evaluated by luciferase assay in PC-3 cells WT” value is “++”. Besides, at H874Y mutated AR, the “suppression … of H874Y AR” value is “effective” and the “Antiandrogenic activity evaluated by luciferase assay in PC-3 cells H874Y” value is “++”.
